Test results as given in US20240287106A1, “Method for Producing Fluorescent Probe Library Using Solid-Phase Extraction and Method of Measuring Enzyme Activity Using Same” (The University of Tokyo, priority 2021, published 2024).

Key:
Assay type in all cases: biochemical
[1] = target: T1, DPP4 (Homo sapiens, UniProt P27487); assay: Measurement of human plasma sample using DPP4 probe in microdevice; settings: 50 μM probe, 1000 fold dilution plasma
T1 construct: human plasma samples collected from 30 patients with pancreatic cancer and 30 healthy subjects; from tissue; host or cells: human plasma (pancreatic cancer patients and healthy subjects)
Description: 1. Glu-Pro-PMAC as a DPP4 probe was diluted with an assay buffer to 100 μM. The composition of the buffer is 100 mM HEPES-NaOH (pH 7.4), 1 mM MgCl2, 1 mM DTT, 3 mM TritonX-100.
2. Next, human plasma samples collected from 30 patients with pancreatic cancer and 30 healthy subjects were diluted 500 times with the above assay buffer, and mixed in an equal amount with the diluted solution of the DPP4 probe. At this time, the final concentrations are 50 μM for the DPP4 probe and 1000 fold dilution for the human plasma sample.
(§1) 3. The mixed solution was then added to a microdevice, followed by the addition of sealing oil to enclose the solution in each well.
4. The microdevice in which the solution was enclosed was incubated at 25° C. for 2 hours, and then the fluorescence intensity of each well was measured with a fluorescence microscope.

[2] = target: T2, CD13 (Homo sapiens, UniProt P15144); assay: Measurement of human plasma sample using CD13 probe in microdevice; settings: 50 μM probe, 1000 fold dilution plasma; for Fluorescence intensity of human plasma samples, patient with pancreatic cancer compared with healthy subject (CD13 probe): microdevice; for AUC of ROC curve for the number of wells in which CD13 is considered to be enclosed: plasma of 30 patients with pancreatic cancer vs 30 healthy subjects, 37° C. 4 hours, wells >= Average+3SD of background fluorescence
T2 construct: human plasma samples collected from 30 patients with pancreatic cancer and 30 healthy subjects; from tissue; host or cells: human plasma (pancreatic cancer patients and healthy subjects)
Description: 1. Arg-PMAC as a CD13 probe was diluted with an assay buffer to 100 μM. The composition of the buffer is 100 mM HEPES-NaOH (pH 7.4), 1 mM MgCl2, 1 mM DTT, 3 mM TritonX-100.
2. Next, human plasma samples collected from 30 patients with pancreatic cancer and 30 healthy subjects were diluted 500 times with the above assay buffer, and mixed in an equal amount with the diluted solution of the CD13 probe. At this time, the final concentrations are 50 μM for the CD13 probe and 1000 fold dilution for the human plasma sample.
as §1
4. The microdevice in which the solution was enclosed was incubated at 37° C. for 4 hours, and then the fluorescence intensity of each well was measured with a fluorescence microscope.

[3] = target: T3, ENPP3 (Homo sapiens, UniProt O14638); assay: Activity measurement using a purified enzyme of ENPP3 on a plate reader; settings: Tris-HCl buffer pH 9.3, 1 mM MgCl2, 0.5% CHAPS, 10 μM probe, ENPP3 9.9 μg/mL
T3 sequence (O14638 1-875): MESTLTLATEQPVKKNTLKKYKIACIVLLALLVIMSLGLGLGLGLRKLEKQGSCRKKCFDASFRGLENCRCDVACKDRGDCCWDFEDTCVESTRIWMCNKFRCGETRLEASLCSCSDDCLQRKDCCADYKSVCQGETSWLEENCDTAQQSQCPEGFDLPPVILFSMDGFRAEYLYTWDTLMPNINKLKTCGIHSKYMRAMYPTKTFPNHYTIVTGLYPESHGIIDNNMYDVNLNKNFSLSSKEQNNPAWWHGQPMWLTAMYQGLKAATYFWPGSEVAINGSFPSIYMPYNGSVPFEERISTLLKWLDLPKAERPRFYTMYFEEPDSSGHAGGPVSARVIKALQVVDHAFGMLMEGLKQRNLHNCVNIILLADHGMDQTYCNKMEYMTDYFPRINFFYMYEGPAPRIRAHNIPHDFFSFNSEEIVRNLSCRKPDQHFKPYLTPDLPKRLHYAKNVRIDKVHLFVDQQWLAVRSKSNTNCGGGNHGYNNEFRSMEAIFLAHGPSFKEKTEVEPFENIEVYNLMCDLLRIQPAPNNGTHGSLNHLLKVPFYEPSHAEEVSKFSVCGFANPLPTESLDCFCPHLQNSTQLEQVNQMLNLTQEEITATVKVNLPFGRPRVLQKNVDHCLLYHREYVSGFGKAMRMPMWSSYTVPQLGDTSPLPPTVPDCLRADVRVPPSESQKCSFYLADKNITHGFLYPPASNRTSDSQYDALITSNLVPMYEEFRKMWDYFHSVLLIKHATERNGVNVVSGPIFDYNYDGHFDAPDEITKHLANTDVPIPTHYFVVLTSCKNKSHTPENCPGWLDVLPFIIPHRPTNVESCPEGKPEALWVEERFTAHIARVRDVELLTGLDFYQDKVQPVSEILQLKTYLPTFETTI
Description: The activity measurement of PMUM-dCMP obtained in Synthesis Example 7 was performed using a purified enzyme of ENPP3 on a plate reader.
The assay was performed with a Tris-HCl buffer (pH 9.3) containing 1 mM MgCl2, 0.5% w/w CHAPS, 10 μM PMUM-dCMP, and ENPP3 (recombinant, 9.9 μg/mL).

[4] = target: T3, ENPP3; assay: Measurement of human plasma sample using ENPP probe in microdevice; set-up: human plasma samples collected from six patients with pancreatic cancer and six healthy subjects; from tissue; host or cells: human plasma (pancreatic cancer patients and healthy subjects)
Description: 1. PMUM-dCMP as an ENPP probe was diluted with an assay buffer to 200 μM. The composition of the assay buffer is 100 mM Tris-HCl (pH 9.3), 1 mM MgCl2, 0.5% (w/v) CHAPS.
2. Next, human plasma samples collected from six patients with pancreatic cancer and six healthy subjects were diluted 250 times with the above assay buffer, and mixed in an equal amount with the diluted solution of the ENPP probe. At this time, the final concentrations are 100 μM for the ENPP probe and 500 fold dilution for the human plasma sample.
as §1
4. The microdevice in which the solution was enclosed was incubated at 25° C. for 40 minutes, and then the fluorescence intensity of each well was measured with a fluorescence microscope.
Specifically, in this example, an ROC curve for determination based on the enzyme activity of ENPP determined based on the number of wells with 2500 AU or more is created, and when a threshold is subtracted at the time when the number of wells with 2500 AU or more is 23, the sensitivity is 83% and the specificity is 100% (FIG. 16). It is possible to determine pancreatic cancer by such an ROC curve.

[5] = threshold: number of wells with 2500 AU or more is 23

T2 sequence (P15144 whole entry): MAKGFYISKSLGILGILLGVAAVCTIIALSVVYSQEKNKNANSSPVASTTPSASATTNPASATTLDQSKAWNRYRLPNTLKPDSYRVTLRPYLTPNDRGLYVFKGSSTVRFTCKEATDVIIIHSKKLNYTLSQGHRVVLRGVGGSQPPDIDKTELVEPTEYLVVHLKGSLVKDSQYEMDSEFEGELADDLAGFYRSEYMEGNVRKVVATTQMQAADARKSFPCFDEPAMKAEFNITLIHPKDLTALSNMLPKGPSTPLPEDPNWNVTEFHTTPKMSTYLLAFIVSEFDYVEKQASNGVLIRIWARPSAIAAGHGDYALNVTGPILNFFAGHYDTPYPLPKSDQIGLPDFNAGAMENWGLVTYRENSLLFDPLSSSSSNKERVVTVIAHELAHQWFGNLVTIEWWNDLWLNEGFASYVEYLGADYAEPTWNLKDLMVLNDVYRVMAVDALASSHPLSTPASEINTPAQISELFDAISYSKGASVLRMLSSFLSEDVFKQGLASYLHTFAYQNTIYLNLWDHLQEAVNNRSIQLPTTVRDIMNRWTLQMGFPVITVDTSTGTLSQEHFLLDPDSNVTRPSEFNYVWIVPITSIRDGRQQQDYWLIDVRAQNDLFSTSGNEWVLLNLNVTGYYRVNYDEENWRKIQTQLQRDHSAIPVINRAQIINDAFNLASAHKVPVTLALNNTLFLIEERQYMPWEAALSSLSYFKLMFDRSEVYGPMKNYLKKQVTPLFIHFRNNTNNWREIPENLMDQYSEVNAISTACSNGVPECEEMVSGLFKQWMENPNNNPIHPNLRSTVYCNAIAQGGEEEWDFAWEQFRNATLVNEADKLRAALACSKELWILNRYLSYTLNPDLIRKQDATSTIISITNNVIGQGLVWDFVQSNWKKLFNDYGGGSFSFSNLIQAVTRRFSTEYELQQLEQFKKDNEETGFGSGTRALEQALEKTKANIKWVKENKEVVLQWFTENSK
T1 sequence (P27487 39-766 limits assumed): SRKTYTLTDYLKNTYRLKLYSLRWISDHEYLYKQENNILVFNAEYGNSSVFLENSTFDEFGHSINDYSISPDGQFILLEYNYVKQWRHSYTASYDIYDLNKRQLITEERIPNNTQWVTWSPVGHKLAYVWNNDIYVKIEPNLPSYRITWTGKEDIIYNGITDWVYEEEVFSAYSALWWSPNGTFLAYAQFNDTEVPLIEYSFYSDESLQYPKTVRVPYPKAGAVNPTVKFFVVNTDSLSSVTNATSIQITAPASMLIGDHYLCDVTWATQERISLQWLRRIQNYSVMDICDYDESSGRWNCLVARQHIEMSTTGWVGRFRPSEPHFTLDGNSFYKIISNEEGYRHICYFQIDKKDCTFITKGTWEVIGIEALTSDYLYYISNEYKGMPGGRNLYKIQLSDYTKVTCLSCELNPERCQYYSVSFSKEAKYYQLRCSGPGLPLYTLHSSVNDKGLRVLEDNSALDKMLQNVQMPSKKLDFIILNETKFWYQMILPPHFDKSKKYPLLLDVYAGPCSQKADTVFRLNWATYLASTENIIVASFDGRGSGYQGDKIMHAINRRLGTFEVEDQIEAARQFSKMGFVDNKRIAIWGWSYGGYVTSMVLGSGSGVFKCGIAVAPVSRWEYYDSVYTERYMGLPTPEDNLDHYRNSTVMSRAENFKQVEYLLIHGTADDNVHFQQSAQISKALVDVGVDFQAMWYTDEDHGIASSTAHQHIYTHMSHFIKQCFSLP

## N[C@@H](CCC(=O)O)C(=O)N1CCC[C@@H]1C(=O)Nc1ccc2c(CP(=O)(O)O)cc(=O)oc2c1 [Glu-Pro-PMAC]
[1]; microdevice
  Fluorescence intensity of human plasma samples, patient with pancreatic cancer compared with healthy subject (DPP4 probe): a significant difference was observed
[1]; plasma of 30 patients with pancreatic cancer vs 30 healthy subjects, 25° C. 2 hours
  AUC of ROC curve for the ratio of the number of wells belonging to the two peaks (DPP4 considered enclosed): 0.724

## CSCC[C@H](N)C(=O)Nc1ccc2c(CP(=O)(O)O)cc(=O)oc2c1 [Met-PMAC]
[2]
  Fluorescence intensity of human plasma samples, patient with pancreatic cancer compared with healthy subject (CD13 probe): a significant difference was observed
  AUC of ROC curve for the number of wells in which CD13 is considered to be enclosed: 0.619

## NC1C=CN(C2CC(O)C(COP(=O)(O)Oc3ccc4c(CP(=O)(O)O)cc(=O)oc4c3)O2)C(=O)N1 (centres unmarked) [PMUM-dCMP]
[3]
  Fluorescence intensity (FI) on adding ENPP3 compared with adding no ENPP3: remarkable increase in fluorescence intensity
[4]; microdevice, 100 μM probe, 500 fold dilution plasma
  Fluorescence intensity of human plasma samples, patient with pancreatic cancer compared with healthy subject (ENPP probe): a significant difference was observed
[4]; plasma of six patients and six healthy subjects, 100 μM probe, 500 fold dilution plasma, 25° C. 40 minutes
  Number of wells with fluorescence intensity equal to or higher than 2500 AU, patients with pancreatic cancer compared with healthy subjects: significant increase in the number of wells
[4]; [5]
  Sensitivity of ROC determination of pancreatic cancer: 83%
  Specificity of ROC determination of pancreatic cancer: 100%

## N=C(N)NCCC[C@H](N)C(=O)Nc1ccc2c(CP(=O)(O)O)cc(=O)oc2c1 [Arg-PMAC]
[2]
  Fluorescence intensity of human plasma samples, patient with pancreatic cancer compared with healthy subject (CD13 probe): a significant difference was observed
  AUC of ROC curve for the number of wells in which CD13 is considered to be enclosed: 0.554
